Results reported in publication PMC3420359 (Journal of computer-aided molecular design, 2011).

Columns and labels:
TRPV1 = conditions: cited from earlier work
rTRPV1 T550S = rTRPV1 T550S (Rattus norvegicus, UniProt O35433, T550S); assay: biochemical; assay type: binding
rTRPV1 Y511F = rTRPV1 Y511F (Rattus norvegicus, UniProt O35433, Y511F); assay: biochemical; assay type: binding
rTRPV1 T550A = rTRPV1 T550A (Rattus norvegicus, UniProt O35433, T550A); assay: biochemical; assay type: binding
rTRPV1 T550I = rTRPV1 T550I (Rattus norvegicus, UniProt O35433, T550I); assay: biochemical; assay type: binding
Sequence of rTRPV1 T550I (O35433 whole entry T550I): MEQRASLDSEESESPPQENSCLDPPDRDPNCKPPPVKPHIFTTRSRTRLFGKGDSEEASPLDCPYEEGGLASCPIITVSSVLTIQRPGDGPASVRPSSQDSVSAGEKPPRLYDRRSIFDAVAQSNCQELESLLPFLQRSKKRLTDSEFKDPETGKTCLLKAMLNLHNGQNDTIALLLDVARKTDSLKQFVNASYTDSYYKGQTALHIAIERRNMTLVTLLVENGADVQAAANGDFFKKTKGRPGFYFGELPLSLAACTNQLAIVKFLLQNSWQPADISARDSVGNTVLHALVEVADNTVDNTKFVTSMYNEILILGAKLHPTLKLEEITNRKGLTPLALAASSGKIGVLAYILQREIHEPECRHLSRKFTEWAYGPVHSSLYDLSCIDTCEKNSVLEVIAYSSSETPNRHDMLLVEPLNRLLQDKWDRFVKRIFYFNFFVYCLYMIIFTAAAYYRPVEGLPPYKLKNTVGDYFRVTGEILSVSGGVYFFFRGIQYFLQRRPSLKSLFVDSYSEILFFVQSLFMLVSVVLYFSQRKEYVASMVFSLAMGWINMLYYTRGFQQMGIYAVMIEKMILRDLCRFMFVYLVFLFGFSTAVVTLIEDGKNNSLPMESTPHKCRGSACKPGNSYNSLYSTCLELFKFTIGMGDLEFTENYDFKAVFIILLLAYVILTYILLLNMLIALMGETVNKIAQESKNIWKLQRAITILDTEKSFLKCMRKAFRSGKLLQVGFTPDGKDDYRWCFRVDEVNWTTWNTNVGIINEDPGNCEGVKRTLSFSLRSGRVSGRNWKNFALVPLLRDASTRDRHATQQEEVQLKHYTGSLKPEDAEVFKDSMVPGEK

rTRPV1 WT = rTRPV1 WT (Rattus norvegicus, UniProt O35433); assay: biochemical; assay type: binding
Sequence of rTRPV1 WT (O35433 whole entry): as the sequence (O35433 whole entry T550I) above, with I550T counted along it

rTRPV1 M547L = rTRPV1 M547L (Rattus norvegicus, UniProt O35433, M547L); assay: biochemical; assay type: binding
Sequence of rTRPV1 M547L (O35433 whole entry M547L): as the sequence (O35433 whole entry T550I) above, with M547L, I550T counted along it

Sequence of rTRPV1 Y511F (O35433 whole entry Y511F): as the sequence (O35433 whole entry T550I) above, with Y511F, I550T counted along it
Sequence of rTRPV1 T550S (O35433 whole entry T550S): as the sequence (O35433 whole entry T550I) above, with I550S counted along it
Sequence of rTRPV1 T550A (O35433 whole entry T550A): as the sequence (O35433 whole entry T550I) above, with I550A counted along it

Compound | Ki (TRPV1) | Kd (rTRPV1 T550S) | Kd (rTRPV1 Y511F) | Kd (rTRPV1 T550A) | Kd (rTRPV1 T550I) | Kd (rTRPV1 WT) | Maximal binding capacity (rTRPV1 WT) | Ratio (rTRPV1 WT) | Kd (rTRPV1 M547L)
COc1cc(CNC(=S)NCC(COC(=O)C(C)(C)C)Cc2ccc(C(C)(C)C)cc2)ccc1O (stereo not drawn) [sRTX, N-{3-pivaloyloxy-2-(4-t-butylbenzyl)propyl}-N′-(4-hydroxyl-3-methoxybenzyl)thiourea] | 11 nM |  |  |  |  |  |  |  | 
C=C(C)[C@]12C[C@@H](C)[C@@]34O[C@](Cc5ccccc5)(O[C@@H]1[C@@H]3C=C(COC(=O)Cc1ccc(O)c(OC)c1)C[C@]1(O)C(=O)C(C)=C[C@@H]41)O2 [RTX, resiniferatoxin] |  | 0.233 ± 0.022 nM | 0.79 ± 0.13 nM | 0.417 ± 0.062 nM | 4.16 ± 0.82 nM | 0.203 ± 0.02 nM | 6400 fmol/mg protein | 1.0 | 2.38 ± 0.24 nM
